The conditions of the data set: Liquid; Closed cell (Static) method.

Numbers after ± are expanded uncertainties.

Here are results for 2 compounds from the NIST ThermoML archive (doi:10.1016/j.fluid.2014.06.010).

For `CC(O)C(=O)O` (configuration not stated) [2-hydroxypropanoic acid], the Normal boiling temperature was determined as 125.1 ± 0.2 °C.

Turning to `CC(=O)CC(C)C` [4-methylpentan-2-one], the Normal boiling temperature stood at 119.2 ± 0.2 °C.
